Like-named read-outs stand apart in the source and are kept apart here. Marks after values point to notes of the source that are not given here.
Assays:
[1] = tested on: HaCaT cell line; assay: Toxicity on HaCaT cells (IC10 used as dose); type: cell-based; settings: Homo sapiens
Procedure: The activity of selenoesters was tested on several cancer cell lines, including HepG2 (hepatocellular carcinoma, CCL-23TM, ATCC); HeLa (cervical adenocarcinoma, CCL-2TM, ATCC); B16 (skin melanoma, CCL-6322TM, ATCC); and a non-cancerous cell line, HDF (human dermal fibroblasts, Sigma-Aldrich). HepG2, HeLa, B16, and HDF cell lines were cultivated in EMEM medium supplemented with 10% FBS, 2 mM L-glutamine, and 1% penicillin-streptomycin mixture. The HaCaT cell line was cultivated in DMEM medium supplemented with 10% FBS and 1% penicillin-streptomycin mixture. All of the cells were cultivated in a CO2 incubator (5% CO2, 37 °C). Twice per week, the cell lines were passaged according to a standardized protocol with a trypsin-EDTA solution. […]
Wound healing activity of selenoesters was evaluated as the ability of the cells to migrate and close the gap created on the monolayer of human keratinocytes (HaCaT cell line). The tested substances were applied in the highest possible non-toxic concentration (IC10, concentration inhibiting 10% of the population). In general, ketone-selenoesters were more toxic (except K4 and K1) than cyano-selenoesters (except N4); therefore, they were applied at lower doses (0.17–0.30 µM) when compared to cyanoselenoesters (0.36–0.64 µM). Compounds K1, K4, and N4 were applied at a concentration of 0.30, 0.46, and 0.20 µM, respectively. As could be seen in Table 8, all ketone-selenoesters stimulated wound healing more effectively in comparison to both untreated control (p < 0.0000005) and allantoin (p < 0.00005). […] Only samples N1, N2, N4, and N7 closed effectively the damaged wound in 24 h, with the gap closure around 70%.

[2] = tested on: HeLa (cervical adenocarcinoma); assay: Cytotoxicity on HeLa cells; type: cell-based; settings: Homo sapiens
Procedure: (§1) The activity of selenoesters was tested on several cancer cell lines, including HepG2 (hepatocellular carcinoma, CCL-23TM, ATCC); HeLa (cervical adenocarcinoma, CCL-2TM, ATCC); B16 (skin melanoma, CCL-6322TM, ATCC); and a non-cancerous cell line, HDF (human dermal fibroblasts, Sigma-Aldrich). HepG2, HeLa, B16, and HDF cell lines were cultivated in EMEM medium supplemented with 10% FBS, 2 mM L-glutamine, and 1% penicillin-streptomycin mixture. The HaCaT cell line was cultivated in DMEM medium supplemented with 10% FBS and 1% penicillin-streptomycin mixture. All of the cells were cultivated in a CO2 incubator (5% CO2, 37 °C). Twice per week, the cell lines were passaged according to a standardized protocol with a trypsin-EDTA solution.
(§2) The selectivity indexes (SI) were calculated as the ratio of the IC50 value in the non-tumour cells and the IC50 in the cancer cell lines. The compound’s activity towards cancer cells is considered as strongly selective if the selectivity index (SI) value is higher than 6, moderately selective if 3 < SI < 6, slightly selective if 1 < SI < 3, and non-selective if SI is lower than 1 [16].

[3] = tested on: Colo 205 human colonic adenocarcinoma cell line; assay: Cytotoxicity (MTT) on sensitive Colo 205 cells; type: cell-based; settings: for IC50: Homo sapiens, read-out: Colo 205 (IC50 µM) Mean; for SI MRC-5/Colo 205: ratio IC50 non-tumour cells / IC50 cancer cells
Source text: (§3) Three cell lines have been used in this study: the doxorubicin-sensitive Colo 205 (CCL-222, ATCC, Manassas, VA, USA) human colonic adenocarcinoma cell line; the multidrug resistant Colo 320/MDR-LRP expressing P-gp (MDR1)-LRP (CCL-220.1, ATCC) human colonic adenocarcinoma cell line; and the MRC-5 human embryonal lung fibroblast cell line (CCL-171, ATCC). The colon adenocarcinoma cell lines were purchased from LGC Promochem (Teddington, UK), and the MRC-5 cell line was purchased from Sigma-Aldrich (Merck KGaA, Darmstadt, Germany). Their culture conditions are as follows: Colo 205 (CCL-222, ATCC) and Colo 320/MDR-LRP expressing P-gp (MDR1)-LRP (CCL-220.1, ATCC) human colon adenocarcinoma cell lines were cultured in RPMI 1640 medium, supplemented with 10% FBS, 2 mM L-glutamine, 1 mM Na-pyruvate, and […]. The cell lines were incubated at 37 °C, 5% CO2, and 95% air atmosphere. The semi-adherent human colon cancer cells were detached with a Trypsin-Versene (EDTA) solution for 5 min at 37 °C. MRC-5 human embryonal lung fibroblast cells were cultured in EMEM containing 4.5 g/L of glucose and supplemented with a non-essential amino acid mixture, a selection of vitamins, and 10% FBS. The cell lines were incubated at 37 °C, 5% CO2, and 95% air atmosphere.
(§4) The effects of increasing concentrations of the compounds on cell growth were tested in 96-well flat-bottomed microtiter plates. Moreover, 10^4 of human colonic adenocarcinoma cells in 100 μL of the medium (RPMI-1640) were added to each well, except for the medium control wells. The adherent human embryonic lung fibroblast cell line was seeded in the EMEM medium for 4 h before the assay. The two-fold serial dilutions of the compounds were made in a separate plate (0.19–100 μM), and then transferred to the plates containing the adherent corresponding cell line. Culture plates were incubated at 37 °C for 24 h. At the end of the incubation period, 20 μL of MTT (thiazolyl blue tetrazolium bromide) solution (from a 5 mg/mL stock solution) were added to each well. After incubation at 37 °C for 4 h, 100 μL of sodium dodecyl sulfate (SDS) solution (10% SDS in 0.01 M HCl) was added to each well, and the plates were further incubated at 37 °C overnight. Cell growth was determined by measuring the optical density (OD) at 540 nm (ref. 630 nm) with a Multiscan EX ELISA reader (Thermo Labsystems, Cheshire, WA, USA). Inhibition of cell growth was expressed as IC50 values, defined as the inhibitory dose that reduces the growth of the cells exposed to the tested compounds by 50%. IC50 values and the SD of triplicate experiments were calculated by using GraphPad Prism software version 5.00 for Windows, with a non-linear regression curve fit (GraphPad Software, San Diego, CA, USA; www.graphpad.com, accessed on 12 July 2021). Doxorubicin (from a 2 mg/mL stock solution, Teva Pharmaceuticals) was used as a positive control.
as §2

[4] = tested on: HepG2 (hepatocellular carcinoma); assay: Cytotoxicity on HepG2 cells; type: cell-based; settings: Homo sapiens
Procedure: as §1, §2

[5] = tested on: HeLa (cervical adenocarcinoma); assay: Cytotoxicity on HeLa cells; type: cell-based, human; settings: ratio IC50 non-tumour cells / IC50 cancer cells
[6] = tested on: B16 (skin melanoma); assay: Cytotoxicity on B16 cells; type: cell-based, murine; settings: Mus musculus
Procedure: as §1, §2

[7] = Cytotoxicity (MTT) on normal MRC-5 fibroblasts; type: cell-based; settings: human
Source text: as §3, §4

[8] = concentration inhibiting 10% of the population, highest non-toxic concentration, read-out: Dose IC10
[9] = 24 h, MTT, read-out: MRC-5 (IC50 µM) Mean

CC(=O)C[Se]C(=O)c1cccs1 [K1, Se-(2-Oxopropyl) Thiophene-2-carboselenoate]
IC10 [1, 8]: 0.3 µM
IC50 [2]: 2.5 µM
IC50 ([3]; COLO 205, 24 h, MTT): 1.53 µM
SI MRC-5/Colo 205 [3]: 1.46
IC50 [4]: 2.3 µM
SI MRC-5/HeLa [5]: 1.5
IC50 [6]: 1.4 µM
IC50 at 24 h [7]: 2.24 µM

CC(=O)C[Se]C(=O)c1ccccc1F [K2, Se-(2-Oxopropyl) 2-Fluorobenzoselenoate]
IC10 [1, 8]: 0.2 µM
IC50 [2]: 2.5 µM
IC50 ([3]; COLO 205, 24 h, MTT): 3.35 µM
IC50 [4]: 2.2 µM
SI MRC-5/HeLa [5]: 1.0
IC50 [6]: 1.2 µM
IC50 at 24 h [7]: 2.53 µM

CC(=O)C[Se]C(=O)c1ccc(Br)cc1 [K3, Se-(2-Oxopropyl) 4-Bromobenzoselenoate]
IC10 ([1]; read-out: Dose IC10 (µM)): 0.24 µM
IC50 [2]: 2.1 µM
IC50 ([3]; COLO 205, 24 h): 2.28 µM
SI MRC-5/Colo 205 [3]: 1.25
IC50 [4]: 3.1 µM
SI MRC-5/HeLa [5]: 1.1
IC50 [6]: 1.7 µM
IC50 at 24 h [7, 9]: 2.86 µM

CC(=O)C[Se]C(=O)c1ccccc1C(F)(F)F [K4, Se-(2-Oxopropyl) 2-(Trifluoromethyl)benzoselenoate]
IC10 ([1]; read-out: Dose IC10 (µM)): 0.46 µM
IC50 [2]: 1.9 µM
IC50 ([3]; COLO 205, 24 h): 1.05 µM
IC50 [4]: 4.3 µM
SI MRC-5/HeLa [5]: 1.5
IC50 [6]: 2 µM
IC50 at 24 h [7, 9]: 3.63 µM

CC(=O)C[Se]C(=O)c1cccc(C(F)(F)F)c1 [K5, Se-(2-Oxopropyl) 3-(Trifluoromethyl)benzoselenoate]
IC10 [1, 8]: 0.25 µM
IC50 [2]: 2.5 µM
IC50 ([3]; COLO 205, 24 h, MTT): 2.14 µM
SI MRC-5/Colo 205 [3]: 1.45
IC50 [4]: 2.4 µM
SI MRC-5/HeLa [5]: 1.2
IC50 [6]: 1.1 µM
IC50 at 24 h [7]: 3.11 µM

CC(=O)C[Se]C(=O)c1ccc(F)c(Cl)c1 [K6, Se-(2-Oxopropyl) 3-Chloro-4-fluorobenzoselenoate]
IC10 [1, 8]: 0.22 µM
IC50 [2]: 2.3 µM
IC50 ([3]; COLO 205, 24 h, MTT): 2.1 µM
SI MRC-5/Colo 205 [3]: 1.73
IC50 [4]: 2.9 µM
SI MRC-5/HeLa [5]: 1.6
IC50 [6]: 1.3 µM
IC50 at 24 h [7]: 3.62 µM

CC(=O)C[Se]C(=O)c1ccc(C(C)(C)C)cc1 [K7, Se-(2-Oxopropyl) 4-(Tert-butyl)benzoselenoate]
IC10 ([1]; read-out: Dose IC10 (µM)): 0.24 µM
IC50 [2]: 2.7 µM
IC50 ([3]; COLO 205, 24 h): 2.69 µM
SI MRC-5/Colo 205 [3]: 1.38
IC50 [4]: 3.7 µM
SI MRC-5/HeLa [5]: 1.4
IC50 [6]: 1.4 µM
IC50 at 24 h [7, 9]: 3.72 µM

CC(=O)C[Se]C(=O)c1cc(F)c(F)cc1F [K8, Se-(2-Oxopropyl) 2,4,5-Trifluorobenzoselenoate]
IC10 [1, 8]: 0.17 µM
IC50 [2]: 2 µM
IC50 ([3]; COLO 205, 24 h, MTT): 2.24 µM
SI MRC-5/Colo 205 [3]: 1.12
IC50 [4]: 4 µM
SI MRC-5/HeLa [5]: 1.3
IC50 [6]: 1.4 µM
IC50 at 24 h [7]: 2.5 µM

N#CC[Se]C(=O)c1cccc(F)c1 [N2, Se-(Cyanomethyl) 3-Fluorobenzoselenoate]
IC10 [1, 8]: 0.36 µM
IC50 [2]: 5.2 µM
IC50 ([3]; COLO 205, 24 h, MTT): 2.96 µM
SI MRC-5/Colo 205 [3]: >6 *
IC50 [4]: 5.6 µM
SI MRC-5/HeLa [5]: >6 *
IC50 [6]: 2.6 µM
IC50 at 24 h [7]: > 100 µM

N#CC[Se]C(=O)c1ccc(Br)cc1 [N3, Se-(Cyanomethyl) 4-Bromobenzoselenoate]
IC10 [1, 8]: 0.64 µM
IC50 [2]: 2.4 µM
IC50 ([3]; COLO 205, 24 h, MTT): 2.1 µM
SI MRC-5/Colo 205 [3]: >6 *
IC50 [4]: 9.6 µM
SI MRC-5/HeLa [5]: >6 *
IC50 [6]: 2.8 µM
IC50 at 24 h [7]: > 100 µM

N#CC[Se]C(=O)c1ccccc1C(F)(F)F [N4, Se-(Cyanomethyl) 2-(Trifluoromethyl)benzoselenoate]
IC10 [1, 8]: 0.2 µM
IC50 [2]: 2.5 µM
IC50 ([3]; COLO 205, 24 h, MTT): 1.97 µM
IC50 [4]: 5.2 µM
SI MRC-5/HeLa [5]: >6 *
IC50 [6]: 1.4 µM
IC50 at 24 h [7]: > 100 µM

N#CC[Se]C(=O)c1cc(C(F)(F)F)cc(C(F)(F)F)c1 [N7, Se-(Cyanomethyl) 3,5-Bis(trifluoromethyl)benzoselenoate]
IC10 [1, 8]: 0.61 µM
IC50 [2]: 2.1 µM
IC50 ([3]; COLO 205, 24 h, MTT): 1.98 µM
IC50 [4]: 11.8 µM
SI MRC-5/HeLa [5]: >6 *
IC50 [6]: 1.6 µM
IC50 at 24 h [7]: > 100 µM

Reference: paper PMC8465942, “Cyano- and Ketone-Containing Selenoesters as Multi-Target Compounds against Resistant Cancers” (Cancers, 2021)
